Assay results reported in article PMC8692993, “PPARα and PPARγ activation is associated with pleural mesothelioma invasion but therapeutic inhibition is ineffective” (iScience, 2021).

Assays:
[1] = tested on: VGE62 human mesothelioma cell line; assay: Matrigel invasion scratch assay; format: cell-based; conditions: VGE62, 0.5, 1, 10 μM, concentration-dependent, p <0.0001
Protocol: Cells were harvested and seeded in Incucyte®ImageLock 96-well plates (Essen BioScience) at a density of 10 x 10^4 cells/mL overnight. A scratch wound was performed on the confluent cells with the 96-pin IncuCyte WoundMaker Tool (Essen BioScience). For migration assays, cells were washed with PBS once before adding 100 μL media with GW6471 at indicated concentrations. For matrigel invasion assays, cells were washed with PBS once before adding 50 μL of matrigel basement membrane matrix (FAL356231; Corning, NY, USA) at 8 mg/mL; lastly 100 μL media with GW6471 at indicated concentrations were added on top of the matrigel. Wounded cells were incubated in the IncuCyte ZOOM® at 37°C with 5% CO2. Data were analysed using the Incucyte® Scratch Wound Cell Migration Software Module and calculating the Relative Wound Density (%) (RWD) for both migration and invasion assays.

AB1-Luc = assay: Intraperitoneal AB1-Luc mesothelioma model, bioluminescence and histology; format: in vivo, BALB/c mice; conditions: for Tumor growth (bioluminescence, average radiance): versus controls
Protocol: Cells were trypsinized and washed two times in phosphate buffer saline (PBS) and counted with trypan blue dye. For the SC tumour model, mice were shaved on the right-hand flank and inoculated with 5x10^5 AB1 or 1x10^6 AE17 cells suspended in 100 μL PBS. Tumour volume (mm^3) was monitored with callipers. For the IPL tumour model, mice were anaesthetised under continuous isofluorane and inoculated with 5 x 10^5 AB1 or 1 x 10^6 AE17 cells suspended in 200 μL PBS into the pleural space as previously described ([Lansley et al., 2015]) Tumour size was determined by weighting together the tumour with the lungs minus the weight of aged matched healthy lungs. For the IP tumour model, mice where inoculated in the intraperitoneal cavity on the right flank with 5x10^5 AB1-Luc cells suspended in 200 μL PBS. Tumour size was determined by in vivo imaging system (IVIS), see below. All mice were euthanized in accordance with animal ethics guidelines.
Female BALB/cJAusb mice (10–12 weeks) were inoculated IP with 5 x 10^5 AB1-Luc on their right flank. Mice were randomly allocated to the different groups on the first treatment day. Treatment with ABT + GW6471 or GW6471 alone started on day 4 after tumour inoculation. IP Injections and concentrations were used as previously described in the “Mouse pharmacokinetic studies” section in experimental model and subject details. Initial mouse weight was measured immediately before the first injection, and it was used to calculate weight change daily. Mice were dosed for a maximum of seven consecutive days. In vivo imaging system (IVIS) (see below) was performed on days 3 (before treatment), 7 (during treatment) and 11 (after treatment). Mice were euthanized on day 11 in accordance with animal ethics guidelines and organs were harvested for staining.
XenoLight D-Luciferin potassium salt (PerkinElmer, VIC, Australia) was used at a 150 mg/kg concentration dissolved in sterile PBS. Approximately 150 μL (15 mg/mL concentration) was injected subcutaneously per mouse. […]

[2] = Protein binding by rapid equilibrium dialysis, reporter assay media; format: in vitro ADME; conditions: DMEM/F-12 with 5% dextran-coated charcoal-stripped FCS, mean ± SD, n=3
Protocol: Protein binding was determined via rapid equilibrium dialysis (RED) with incorporation of a pre-saturation step ([Charman et al., 2020]). The pre-incubation process involved RED system being exposed to fresh aqueous solutions of GW6471 (400 nM) for three periods (including one overnight). For the protein binding determination, GW6471 was spiked into the diluted mouse plasma (10% (v/v); in PBS) or DMEM/F-12 media containing 5% dextran-coated charcoal-stripped FCS (at 2000 nM) and dialysed against protein-free PBS (for plasma) or base media (DMEM/F-12) containing GW6471 at 40 nM for 24 h at 37°C under ambient atmosphere on a plate shaker. Concentrations of GW6471 in dialysate and donor samples collected at the end of the dialysis period were determined via LC–MS.
Compound binding was assessed on the basis of the measured concentrations in dialysate and donor samples at the end of the dialysis period.
Based on the post-dialysis measured concentrations in donor (Ctotal_post_dialysis) and dialysate (Cunbound) for each RED unit, the unbound fraction of compound in assay matrix (fu_diluted) was calculated according to Equation 1 below:(Equation 1) fu=Cunbound/Ctotal_post−dialysis
For media, the value for fu calculated according to Equation 1 above was used without further correction. […]

renal cell carcinoma = tested on: renal cell carcinoma; set-up: method as in Abu Aboud et al., 2015; conditions: 25 μM; ref Abu Aboud et al., 2015; cited from earlier work
VGE62 = assay: MTT cell metabolic activity assay, VGE62; format: cell-based, human; conditions: VGE62, 48 h, 0.391-100 μM; effect at higher micromolar concentrations
Protocol: Cells were harvested and seeded in 96-flat well plates (Corning) at a density of 5 x 10^4 cells/mL overnight. Media was removed and 100 μL media with GW6471 or GW9662 at indicated concentrations was added to each well. Cell viability and toxicity were measured at 48 h. Cells were incubated with 50 μL of a 2 mg/mL solution of (3-(4,5-dimethyl-thiazole-2-yl)-2,5-[…] tetrazolium (MTT, Sigma-Aldrich) in PBS for 4 h and then exposed to 100 μL dimethyl sulfoxide (DMSO; Sigma-Aldrich). Cell viability was measured by absorption at 570 nm in a microplate spectrophotometer (Spectromax 250 plate reader). Results are shown as relative cell viability.

For `CCC(=O)NC[C@H](Cc1ccc(OCCc2nc(-c3ccccc3)oc2C)cc1)N/C(C)=C\C(=O)c1ccc(C(F)(F)F)cc1` [GW6471], the “Invasion into matrigel (relative wound density)” value [1] was “significantly inhibited invasion”, the “Tumor growth (bioluminescence, average radiance)” value (AB1-Luc; GW6471 10 mg/kg IP daily from day 4, with ABT 50 mg/kg pre-treatment (ABT + GW6471)) was “no significant effect on tumor growth” and the “Tumor growth (bioluminescence, average radiance)” value (AB1-Luc; GW6471 10 mg/kg IP daily from day 4, without ABT) was “no significant effect on tumor growth”. For the same molecule, the “Mesothelioma invasion and proliferation in vivo (histology)” value (AB1-Luc; GW6471 with or without ABT, all mice showed invasion into intestine and pancreas) was “no impact on mesothelioma invasion and proliferation in vivo”, the “Fraction unbound (fu)” value [2] was 0.0037 ± 0.0006 and the “Cell-cycle arrest and apoptosis” value (renal cell carcinoma) was “significant cell-cycle arrest and apoptosis”. The “Cell viability (MTT)” value (VGE62) was “lowered viability”.
